Measurements taken from patent US20080039816A1, “Carbohydrate-Encapsulated Quantum Dots for Bilogical Imaging” (The Government of the United States of America as …, priority 2004, published 2008).

Assay: Storage stability of thiol ligands (dimerization to disulfide)
Format: physicochemical
Procedure: In a second, alternative approach for hydrolysis, the debenzylidinated thioester (300 mg) was dissolved in methanol (5 ml). […] Air was bubbled through the solution and the solution was stirred at room temperature and allowed to react for 24 hours. […] The Thomsen-Friedenreich-disulfide of formula VII (130 mg) was then dissolved in distilled water (1 ml) and degassed with argon for 20 minutes. Dithiothreitol (130 mg) was added and the solution allowed to react for 20 minutes. The excess dithiothreitol was then removed by several extractions with ethyl acetate. The residue was then purified by reverse phase flash chromatography on a C-18 column with an aqueous solution of methanol (10%-40% (v/v)) to yield the Thomsen-Friedenreich-thiol of formula VI.
After 30 min, the reaction was carefully neutralized with strongly acidic ion-exchange resin Amberlite®-120, filtered and concentrated. Purification was accomplished on a Strata® SI-1 silica gel cartridge eluting with 20% MeOH in CH2Cl2.

CC(=O)NC1C(OCCCCCS)OC(CO)C(O)C1OC1OC(CO)C(O)C(O)C1O (centres unmarked) [formula 3]
stability upon standing at room temperature (room temperature): oxidizes to the Thomsen-Friedenreich-disulfide of formula VII
storage stability (dimerization) (stored at −20° C. (under argon)): without significant dimerization for weeks
